What was measured:
Fasciola hepatica [1] = assay: Fasciolicidal activity against Fasciola hepatica metacercariae infected in rat assessed as elimination of liver flukes at 3.1 mg/kg, po administered as single dose; format: functional
Fasciola hepatica [2] = assay: Fasciolicidal activity against Fasciola hepatica metacercariae infected in sheep assessed as elimination of liver flukes at 15 mg/kg, po measured 6 weeks after infection; format: functional; conditions: 1008 h
Fasciola hepatica [3] = assay: Fasciolicidal activity against Fasciola hepatica metacercariae infected in calves assessed as elimination of liver flukes at 15 mg/kg, po measured 8 weeks after infection; format: functional; conditions: 1344 h
Fasciola hepatica [4] = assay: Fasciolicidal activity against Fasciola hepatica metacercariae infected in sheep assessed as elimination of liver flukes at 2.5 mg/kg, po measured 16 weeks after infection; format: functional; conditions: 2688 h
Ovis aries = assay: Toxicity in Fasciola hepatica metacercariae infected in sheep assessed as induction of gross toxic reactions at 200 to 400 mg/kg, po administered as single dose; format: organism-based; parameters: dose 200-400 mg/kg, route oral; conditions: in vivo
Fasciola hepatica [5] = assay: Fasciolicidal activity against Fasciola hepatica metacercariae infected in po dosed rat assessed as elimination of liver flukes administered as single dose; format: functional; conditions: read-out: MED

SMILES | inhibition in vivo at 3.1 mg/kg (Fasciola hepatica [1]) [%] | inhibition in vivo at 15 mg/kg (Fasciola hepatica [2]) [%] | inhibition in vivo at 15 mg/kg (Fasciola hepatica [3]) [%] | inhibition in vivo at 2.5 mg/kg (Fasciola hepatica [4]) [%] | Activity (Ovis aries) | minimal effective dose (Fasciola hepatica [5]) [mg/kg]
Nc1cc(C(Cl)=C(Cl)Cl)c(S(N)(=O)=O)cc1S(N)(=O)=O [CLORSULON] | > 90 | > 90 | > 90 | 90 | Non-toxic | –
O=C(Nc1ccc(Oc2ccc(Cl)cc2)c(Cl)c1)c1cc(I)cc(I)c1O [RAFOXANIDE] | – | – | – | – | – | 3.1

From ChEMBL document CHEMBL3272045, “4-amino-6-(trichloroethenyl)-1,3-benzenedisulfonamide, a new, potent fasciolicide” (J Med Chem, 1977)
